Earlier results in PubChem BioAssay AID1259409 (Chemical Carcinogenesis Research Information System (CCRIS), 2018).

Test system: rodent chemically induced tumor inhibition, incidence and multiplicity
Assay: CCRIS tumor inhibitor studies

## CSC[C@H](N)C(=O)O
Carcinogen: 7,12-DIMETHYLBENZ[A]ANTHRACENE, 57-97-6, Dose [Inhibitor]: 0, 0.005 MOL/KG DIET BEGINNING 2 WK PRIOR TO CARCINOGEN AND CONTINUED FOR STUDY DURATION (STUDY DURATION: 25 WK), Route [Inhibitor]: ORAL, Species: RAT, Strain/Sex: CD-1/FEMALE, Target Tissue: Type of Lesion: MAMMARY GLAND: ADENOCARCINOMA, Dose [Carcinogen]: 10 MG ONCE, Promoter: NONE USED
  tumour outcome (control, treated, inhibition, significance): 22/25 (88%), 19/25 (76%), 14%, not significant
Carcinogen: 7,12-DIMETHYLBENZ[A]ANTHRACENE, 57-97-6, Dose [Inhibitor]: 0, 0.015 MOL/KG DIET BEGINNING 1 WK POST CARCINOGEN AND CONTINUED FOR STUDY DURATION (STUDY DURATION: 25 WK), Route [Inhibitor]: ORAL, Species: RAT, Strain/Sex: CD-1/FEMALE, Target Tissue: Type of Lesion: MAMMARY GLAND: ADENOCARCINOMA, Dose [Carcinogen]: 10 MG ONCE, Promoter: NONE USED
  tumour outcome (control, treated, inhibition, significance): 23/30 (77%), 14/30 (47%), 39%, p<0.05
Carcinogen: 7,12-DIMETHYLBENZ[A]ANTHRACENE, 57-97-6, Dose [Inhibitor]: 0, 0.015 MOL/KG DIET BEGINNING 2 WK PRIOR TO CARCINOGEN AND CONTINUED 1 WK POST CARCINOGEN (STUDY DURATION: 25 WK), Route [Inhibitor]: ORAL, Species: RAT, Strain/Sex: CD-1/FEMALE, Target Tissue: Type of Lesion: MAMMARY GLAND: ADENOCARCINOMA, Dose [Carcinogen]: 10 MG ONCE, Promoter: NONE USED
  tumour outcome (control, treated, inhibition, significance): 23/30 (77%), 21/30 (70%), 9%, not significant
Carcinogen: 7,12-DIMETHYLBENZ[A]ANTHRACENE, 57-97-6, Dose [Inhibitor]: 0, 0.015 MOL/KG DIET BEGINNING 2 WK PRIOR TO CARCINOGEN AND CONTINUED FOR STUDY DURATION (STUDY DURATION: 25 WK), Route [Inhibitor]: ORAL, Species: RAT, Strain/Sex: CD-1/FEMALE, Target Tissue: Type of Lesion: MAMMARY GLAND: ADENOCARCINOMA, Dose [Carcinogen]: 10 MG ONCE, Promoter: NONE USED
  tumour outcome (control, treated, inhibition, significance): 22/25 (88%), 13/25 (52%), 41%, p<0.05

## S=C=S
Carcinogen: 1,2-DIMETHYLHYDRAZINE, 540-73-8, Dose [Inhibitor]: 0, 250 MG/KG BW IN CORN OIL ADMINISTERED 24 AND 2 HR PRIOR TO AND 24 HR POST EACH CARCINOGEN DOSE (STUDY DURATION: 8 MO), Route [Inhibitor]: GAVAGE, Species: RAT, Strain/Sex: BD6/MALE, Target Tissue: Type of Lesion: INTESTINE: TUMOR, Dose [Carcinogen]: 20 MG/KG BW 1/WK FOR 20 WK, Promoter: NONE USED
  tumour outcome (control, treated, inhibition, significance): 100%, 0%, 100%, not calculated

## CS(=O)(=O)c1ccc(C2=C(c3ccccc3)C(=O)OC2)cc1
Carcinogen: N-METHYL-N-NITROSOUREA, 684-93-5, Dose [Inhibitor]: 0.001% IN DIET, BEGINNING 7 D BEFORE FIRST CARCINOGEN DOSE FOR 19 WK (STUDY DURATION: 19 WK), Route [Inhibitor]: ORAL, Species: RAT, Strain/Sex: SPRAGUE-DAWLEY/FEMALE, Target Tissue: Type of Lesion: MAMMARY GLAND: TUMOR, Dose [Carcinogen]: 50 MG/KG 1 WK FOR 2 WK
  tumour outcome (control, treated, inhibition, significance): 16/23 (69.6%), 10/24 (41.7%), 40%, not significant
Carcinogen: N-METHYL-N-NITROSOUREA, 684-93-5, Dose [Inhibitor]: 0.005% IN DIET, BEGINNING 7 D BEFORE FIRST CARCINOGEN DOSE FOR 19 WK (STUDY DURATION: 19 WK), Route [Inhibitor]: ORAL, Species: RAT, Strain/Sex: SPRAGUE-DAWLEY/FEMALE, Target Tissue: Type of Lesion: MAMMARY GLAND: TUMOR, Dose [Carcinogen]: 50 MG/KG 1 WK FOR 2 WK
  tumour outcome (control, treated, inhibition, significance): 16/23 (69.6%), 10/25 (40%), 42.5%, p< 0.05

## S=C=Nc1c2ccccc2c2ccc3cccc4ccc1c2c43
Carcinogen: BENZO[A]PYRENE, 50-32-8, Dose [Inhibitor]: 0, 5 UMOL IN ACETONE 4 HR PRIOR TO CARCINOGEN DOSE (STUDY DURATION: 20 WK), Route [Inhibitor]: DERMAL, Species: MOUSE, Strain/Sex: STRAIN-A/FEMALE, Target Tissue: Type of Lesion: SKIN: TUMOR, Dose [Carcinogen]: 0.1 UMOL IN ACETONE ONCE, Promoter: 12-O-TETRADECANOYLPHORBOL-13-ACETATE, 16561-29-8
  outcome: 85%, 60%, 18%, not significant at 15 wk; 95%, 90%, 5%, not significant at 20 wk

## Cc1cc(=O)cc(C)o1
Carcinogen: BENZO[A]PYRENE, 50-32-8, Dose [Inhibitor]: 0.034 MMOL/G IN DIET FOR 5 WK (STUDY DURATION: 21 WK), Route [Inhibitor]: ORAL, Species: MOUSE, Strain/Sex: ICR/FEMALE, Target Tissue: Type of Lesion: FORESTOMACH: TUMOR, Dose [Carcinogen]: 1 MG IN 0.2 ML CORN OIL 2/WK FOR 4 WK STARTING ON D 8 OF EXPERIMENT, Promoter: NONE USED
  tumour outcome (control, treated, inhibition, significance): 94%, 100%, -6%, not significant

## C[C@@]12CCc3occc3[C@H]1CC[C@@]13C[C@@H](CC[C@H]12)[C@@](O)(CO)C3
Carcinogen: 7,12-DIMETHYLBENZ[A]ANTHRACENE, 57-97-6, Dose [Inhibitor]: 0, 0.2 G/KG OF DIET OF 50:50 MIXTURE OF KAHWEOL AND CAFESTOL FOR 14 WK BEGINNING 1 WK PRIOR TO CARCINOGEN TREATMENT (STU, Route [Inhibitor]: ORAL, Species: HAMSTER, Strain/Sex: SYRIAN/FEMALE, Target Tissue: Type of Lesion: BUCCAL POUCH: TUMOR, Dose [Carcinogen]: 0.5% SOLUTION IN MINERAL OIL PAINTED ON LEFT BUCCAL POUCH 3/WK FOR 13 WK, Promoter: NONE USED
  tumour outcome (control, treated, inhibition, significance): 14/14 (100%), 14/14 (100%), 0%, not significant
Carcinogen: 7,12-DIMETHYLBENZ[A]ANTHRACENE, 57-97-6, Dose [Inhibitor]: 0, 2 G/KG OF DIET OF 50:50 MIXTURE OF KAHWEOL AND CAFESTOL FOR 14 WK BEGINNING 1 WK PRIOR TO CARCINOGEN TREATMENT (STUDY, Route [Inhibitor]: ORAL, Species: HAMSTER, Strain/Sex: SYRIAN/FEMALE, Target Tissue: Type of Lesion: BUCCAL POUCH: TUMOR, Dose [Carcinogen]: 0.5% SOLUTION IN MINERAL OIL PAINTED ON LEFT BUCCAL POUCH 3/WK FOR 13 WK, Promoter: NONE USED
  tumour outcome (control, treated, inhibition, significance): 14/14 (100%), 14/15 (93%), 7%, not significant
